Here are results for three substances from paper doi:10.1101/2025.02.17.638454, “Synergistic RAS-MAPK and AKT Activation in MYC-Driven Tumors via Adjacent PVT1 Rearrangements” (bioRxiv, 2025).

Data set [1] relates to MYC. Nature of the data set: Western blot of MYC in D458. It counts as cell-based, human. The settings on record: D458, stable knockdown of PVT1ts vs sh.Cntrl; n=3, unpaired t-test. The method, then: For whole-cell lysate, the cell pellet was resuspended in RIPA buffer (Cell Signaling Technologies, Danvers, MA) supplemented with a protease inhibitor cocktail (Cell Signaling Technologies) and incubated on ice for 20 minutes. The lysate was then centrifuged at 14,000 revolutions/minute for 10 minutes at 4°C, and the supernatant was harvested. Protein concentration was quantified by BCA Protein Assay Kit (Thermo Fisher Scientific) as per kit protocol. Next, 20 μg of whole-cell lysate was electrophoresed on a 4%–20% gradient polyacrylamide gel with SDS (Bio-Rad, Hercules, CA) and electroblotted onto polyvinylidene difluoride membranes (Bio-Rad). Membranes were blocked in Tris-buffered saline with 5% nonfat milk and 0.1% Tween and probed with antibodies. Bound proteins were detected with horseradish-peroxidase–conjugated secondary antibodies (Cell Signaling Technologies) and SuperSignal West Femto (Thermo Fisher Scientific). Antibodies used were anti-c-MYC (Cell Signaling Technology, 5605, anti-Phospho-c-MYC (Ser62) (Cell Signaling Technology, 13748), anti-β ACTIN (Cell Signaling Technology, 8457), anti-Phospho-p44/42 (Erk1/2) (Thr202/Tyr204) (Cell Signaling Technology, 4370), anti-p44/42 (Erk1/2) (Cell Signaling Technology, 4695), anti-Phospho-MEK1/2 (Ser217/221) (Cell Signaling Technology, 9154), anti-MEK1/2 (Cell Signaling Technology, 9122), anti-Phospho-p90RSK (Ser380) (Cell Signaling Technology, 11989), anti-RSK1/RSK2/RSK3 (Cell Signaling Technology, 9355), Anti-Rabbit IgG, HRP-linked Antibody (Cell Signaling Technology, 7074). Anti-FFX (Firefox) monoclonal antibodies were custom produced by Proteintech using FFX residues 13–104 as epitope.
The HNB ORF and eGFP (control) were cloned in an inducible lentivirus expression, TRE-gateway plasmid (pLIX_403, Addgene, #41395). Lentivirus was produced in HEK293T cells using the protocol described above. D458, NCI-H1792 and COLO 320DM cells were transfected with inducible HNB lentivirus and selected with 1 μg/mL concentration of Puromycin. Selected cells were seeded at a concentration of 4 × 10^5 cells per well. After 24 hours of seeding, the cells were treated with 1 μg/mL Doxycycline for 48 hours. The cells were then lysed using RIPA buffer and 1X protease inhibitor cocktail. The protein lysates were collected and quantified using the previously described protocol. 20 μg of whole-cell lysate was electrophoresed on a 4%–20% gradient polyacrylamide gel with SDS (Bio-Rad, Hercules, CA) and electroblotted onto polyvinylidene difluoride membranes (Bio-Rad). […] Bound proteins were detected with horseradish-peroxidase–conjugated secondary antibodies (Cell Signaling Technologies) and SuperSignal West Femto (Thermo Fisher Scientific). […]
In general terms: A western blot detects proteins with antibodies after separation by electrophoresis.

In data set [2] the test system is D458 cells. The data set can be described thus: Proliferation assay D458. The data set is classed as cell-based, human. The settings on record: D458, stable knockdown of PVT1ts vs sh.Cntrl; two-way ANOVA.
The subject of data set [3] is D458 cells. Nature of the data set: Orthotopic transplantation of D458 into brains of immunocompromised mice. The data set is classed as in vivo. The following applies: D458 sh.RNA1-PVT1ts vs sh.Cntrl in mouse brain; bioluminescence day 9, 14, 21; n=10 each, unpaired t-test. The method, then: All animal procedures were conducted in accordance with the guidelines established by the Institutional Animal Care and Use Committee of Sanford Burnham Prebys Medical Discovery Institute. Efforts were made to minimize animal suffering and to reduce the number of animals used as per the guidelines of AAALAC International and a Multiple Project Assurance A3053–1 is on file in the OLAW, DHHS.

Data set [4] has as its system U2OS cells. Nature of the data set: Proliferation assay U2OS. The data set is classed as cell-based, human. The following applies: si.PVT1ts vs si_ctrl, n=3, two-way ANOVA. The text has this:
(§1) Cancer cell lines: COLO-320DM, SK-PN-DW, U2OS, BxPC-3, DU145, SKBR-3 and, NCI-H1792 were obtained from American Type Culture Collection (Rockville, MD) and grown in their required growth medium per the American Type Culture Collection description. D458 and MB002 were obtained from Dr. Michael Taylor’s lab at SickKids hospital, Toronto. Cell line identity for the master stocks were verified by STR genotyping (IDEXX BioResearch)
(§2) Supplementary Figure 14: Analysis of Cell Proliferation in MYC/PVT1 Neutral Cell Lines
(§3) (U2OS, BxPC-3, DU-145) following Transfection with si_PVT1ts or si_ctrl: Each experiment
(§4) was performed in triplicate (n=3), and statistical significance was determined using two-way
(§5) ANOVA (P values indicated)
(§6) .CC-BY 4.0 International licenseavailable under a
(§7) (which was not certified by peer review) is the author/funder, who has granted bioRxiv a license to display the preprint in perpetuity. It is made
(§8) The copyright holder for this preprintthis version posted February 22, 2025.; https://doi.org/10.1101/2025.02.17.638454doi: bioRxiv preprint […]

Data set [5] concerns BxPC-3 cells. Nature of the data set: Proliferation assay BxPC-3. It counts as cell-based, human. The following applies: BxPC-3, si.PVT1ts vs si_ctrl; n=3, two-way ANOVA.
Excerpt: as §1, §2, §3, §4, §5, §6, §7, §8

For data set [6], the system named is MYC. The data set can be described thus: Western blot of MYC in U2OS. The following applies: si.PVT1ts vs si.Ctrl, n=3, unpaired t-test. It counts as cell-based, human. The procedure:
(§9) For whole-cell lysate, the cell pellet was resuspended in RIPA buffer (Cell Signaling Technologies, Danvers, MA) supplemented with a protease inhibitor cocktail (Cell Signaling Technologies) and incubated on ice for 20 minutes. The lysate was then centrifuged at 14,000 revolutions/minute for 10 minutes at 4°C, and the supernatant was harvested. Protein concentration was quantified by BCA Protein Assay Kit (Thermo Fisher Scientific) as per kit protocol. Next, 20 μg of whole-cell lysate was electrophoresed on a 4%–20% gradient polyacrylamide gel with SDS (Bio-Rad, Hercules, CA) and electroblotted onto polyvinylidene difluoride membranes (Bio-Rad). Membranes were blocked in Tris-buffered saline with 5% nonfat milk and 0.1% Tween and probed with antibodies. Bound proteins were detected with horseradish-peroxidase–conjugated secondary antibodies (Cell Signaling Technologies) and SuperSignal West Femto (Thermo Fisher Scientific). […]
Supplementary Figure 10: FFX protein augments MYC expression (A) Western blot analysis of MYC expression in U2OS cells ectopically transduced with constructs expressing GFP (control) or FFX. […] (C&D) Western blot analysis and quantification of MYC expression in U2OS cells transduced with GFP (control), FFX, FFX(CO), and FFX ATG>TGA. […]

Data set [7] concerns MYC. The data set can be described thus: Western blot of MYC in BxPC-3. It counts as cell-based, human. The settings on record: BxPC-3, si.PVT1ts vs si.Ctrl; n=3, unpaired t-test. The procedure: as §9
For data set [8], the system named is DU-145 cells. Nature of the data set: Proliferation assay DU-145. The following applies: DU-145, si.PVT1ts vs si_ctrl; n=3, two-way ANOVA. The data set is classed as cell-based, human.
Excerpt: as §1, §2, §3, §4, §5, §6, §7, §8

For data set [9], the system named is MYC. The data set can be described thus: Western blot of MYC in DU-145. It counts as cell-based, human. The settings on record: DU-145, si.PVT1ts vs si.Ctrl; n=3, unpaired t-test. The method, then:
as §9

For “shRNA1-PVT1ts: shRNA against PVT1ts, CCGGGGACAGCTTCAACCCATTACG CTCGAGCGTAATGGGTTGAAGCTGTCCTTTTTG (CCGGGGACAGCTTCAACCCATTACGCTCGAGCGTAATGGGTTGAAGCTGTCCTTTTTG)”, the MYC protein levels entry in [1] is “increased proliferation (Figure 4D) and MYC protein levels”. Besides, the cellular proliferation result in data set [2] is reported as “increased proliferation”. For the same substance, the “tumor growth after orthotopic injection” value in data set [3] is on record as “grew significantly more aggressively than controls”.

As for “shRNA2-PVT1ts: shRNA against PVT1ts, CCGGACCTATGAGCTTTGAATAATT CAAGAGATTATTCAAAGCTCATAGGTTTTTT (CCGGACCTATGAGCTTTGAATAATTCAAGAGATTATTCAAAGCTCATAGGTTTTTT)”, the MYC protein levels entry in data set [1] is “increased proliferation (Figure 4D) and MYC protein levels”. Further, the cellular proliferation result in [2] is “increased proliferation”.

Regarding “si.PVT1ts: siRNA targeting variants containing exons 7–9, 5’-ACCUAUGAGCUUUGAAUAA-3’ (other strand not given here)”, the cellular proliferation result in [4], in [5] and in data set [8] was “proliferate faster” throughout. The MYC protein levels entry in data set [6], in [7] and in [9] was “increase in MYC protein levels” throughout.
